The test system of one assay is CD90.2. Briefly: in vitro editing in mouse primary CD8 T cells, CD90.2 knockdown by flow cytometry. It counts as cell-based. In general terms: In flow cytometry, cells or beads pass a laser one at a time.
For assay [1], the system named is EL4 mCherry reporter cell line. Put plainly: EL4 mCherry reporter gene editing, loss of mCherry by flow cytometry. To be noted: 5 μM TAT-4×Myc NLS-Cas9, 75 μM dTAT-HA2, 30 min, no FBS.
The test system of another assay is PD-1. Particulars: mouse, in vivo.
For a further assay, the system named is CD45.2. Put plainly: in vitro editing in mouse primary CD8 T cells, CD45.2 knockdown by flow cytometry. In kind it is cell-based. Particulars: CD45.2 sgRNA_1, 5 μM TAT-4×Myc NLS-Cas9, 75 μM dTAT-HA2, Day 4. The procedure: FIG. 3C: An example of flow plots showing the percentage of sgRNA+Cas9+ for Rosa and CD45.2.
FIG. 3D: Target genes are knocked down during Days 1-5 in vitro culture as measured by flow cytometry.
RN2-Cas9 cells were infected with retrovirus expressing sgRNA and mCherry, and CD45.2 expression level was measured by flow cytometry after 3 days of infection. Both sgRNAs targeting CD45.2 efficiently knocked down CD45.2 compared to sgRNAs targeting Rosa26 (FIG. 3A). It was next tested whether TAT-4×Myc Cas9 can edit the genome in mouse primary CD8 T cells. Briefly, on Day −2, primary CD8 T cells were isolated from 3-month-old mouse spleen and activated by CD3, […], and IL-2 for 24 hours. On Day −1, the activated cells were infected with retrovirus expressing sgRNA and mCherry for 24 hours. Cells were then treated with 5 μM TAT-4×Myc NLS-Cas9 (with GFP tag) and 75 μM dTAT-HA2, and incubated in RPMI 1640 supplied with 1% FBS and 50 μM 2-mercaptoethanol in a 37° C. incubator for 40 min. […] CD45.2 expression level was measured by flow cytometry from Day 1 to Day 5. […] The stability of TAT-4×Myc NLS-Cas9 was evaluated in the cells by measuring normalized Mean Fluorescence Intensity (MFI) of GFP.

Another assay relates to 8.7 kb DNA fragment. Briefly: in vitro DNA cleavage assay. In kind it is biochemical. To be noted: Cas9 RNP with sgRNA, 37° C. The procedure: Cas9 RNPs were assembled by incubating purified spCas9 or TAT-4×Myc NLS-Cas9 with sgRNA targeting a 8.7 kb DNA fragment, and incubated with the DNA fragment for 1, 5, 10, and 15 min at 37° C. The reaction was stopped and the DNA products were separated on a 0.8% agarose gel. Uncut band (˜8.7 kb) and two cleaved bands (˜2.7 kb and 6 kb) are shown on the gel.
TAT-4×Myc NLS-Cas9 expression construct was created by replacing the 4×SV40 NLS (PKKKRKV (SEQ ID NO: 1423)) at the N-terminus of Cas9 (Staahl et al., (2017) Nat Biotechnol 35, 431-434) with 4×Myc NLS ([…] (SEQ ID NO: 1)) with linker -G-G-S- between Myc NLS. The sequence of the TAT cell penetrating peptide ([…] (SEQ ID NO: 2)), derived from the trans-activating transcriptional activator (Tat) from HIV-1 (Frankel and Pabo, 1988; Green and Loewenstein, 1988), was added to the N-terminus, and TAT-4×Myc NLS-Cas9 was cloned into a bacterial recombinant protein expression vector (Gootenberg et al., 2017) with a Twin-Strep and SUMO tag (FIG. 1A). Next, TAT-4×Myc NLS-Cas9 protein was purified by Strep-Tactin affinity chromatography followed by on-column SUMO protease digestion, ion exchange chromatography (IEC), and size exclusion chromatography (SEC) (FIG. 1B) (Gootenberg et al., (2017) Science 356, 438-442).

A further assay has as its system Thy1 and Ptprc genes. Put plainly: Cas9-PAGE with retroviral sgRNA in murine primary CD8 T cells ex vivo (flow cytometry, TIDE assay). In kind it is cell-based. Particulars: sgThy1_IG1 or sgNeg, various concentrations of TH, 5 μM Cas9-T6N^CPP, 30 min. The procedure:
FIG. 12A: A schematic of the experimental workflow of evaluating the PAGE system in murine primary CD8 T cells ex vivo. Murine primary T cells were activated with anti-CD3, anti-CD28 and IL-2, followed by retroviral transduction with a sgRNA expression vector linked with mCherry fluorescent marker. […] Gene editing was evaluated at various time points by flow cytometry against indicated gene products or via direct sanger sequencing of the targeted genomic regions. […] Cells were transduced with either sgThy1_IG1 or sgNeg, followed by 30 min incubation with various concentrations of TH and 5 μM Cas9-T6N^CPP. Flow cytometry analysis was performed at the indicated days post-treatment. […] FIG. 12C: Mean Fluorescent Intensity (MFI) quantification of the flow cytometry analysis at 4 days post-treatment in FIG. 12B (left panel). […] FIG. 12E: Quantification of live cell recovery of CD8 T cells treated with an increased concentration of TH. […] Genomic DNA was isolated at day 6 post-treatment of PAGE, sanger sequenced, and followed by quantification via an online TIDE analysis tool. sgThy1_IG1, sgThy1_IG2, sgThy1_IG3, sgRNAs targeting the Immunoglobulin domain of Thy1 gene; sgPtprc_CAT1 and sgPtprc_TM1, sgRNAs targeting either the catalytic domain or transmembrane domain of Ptprc gene; sgNeg, an sgRNA targeting Ano9 gene was used as a negative control here. […]

Regarding “TAT-4×NLS^MYC-Cas9-2×NLS^SV40-sfGFP [TAT-4×Myc NLS-Cas9]”, the “percentage of CD90.2 knockdown cells, maximum” value in the assay with CD90.2 (CD90.2 sgRNA_2, 5 μM TAT-4×Myc NLS-Cas9, 75 μM dTAT-HA2, Day 3) is given as around 90%. In the assay on CD90.2 (CD90.2 sgRNA_3, 5 μM TAT-4×Myc NLS-Cas9, 75 μM dTAT-HA2, Day 3), the “percentage of CD90.2 knockdown cells, maximum” value is around 70%. Moreover, the “percentage of mCherry^− cells” value in assay [1] is reported as 92.9%. In addition, in the assay on PD-1, the PD-1 expression is on record as around 20%; the “percentage of sgRNA^+P14 T cell population and total number of sgRNA^+P14 T cells” value is “increased”. Also, the “percentage of CD45.2 knockdown cells, maximum” value in the assay on CD45.2 was around 60%. In the assay with 8.7 kb DNA fragment, the DNA cleavage entry is “efficiently cleaved DNA”.
As for dTAT-HA2 [TH], the “Cas9-T6N^CPP gene editing in murine primary CD8 T cells” value in the assay on Thy1 and Ptprc genes is listed as “promoted Cas9-T6N^CPP gene editing”.

The values are drawn from patent US20240263159A1, “GENE EDITING IN PRIMARY IMMUNE CELLS USING CELL PENETRATING CRISPR-CAS SYSTEM” (THE TRUSTEES OF THE UNIVERSITY OF PENNSYLVANIA, priority 2021, published 2024).
